Read-outs that look alike come from different tables or passages of the source.
Columns and labels:
Assay type in all cases: biochemical
[1] = molecular target: T1, tPHD2 (PHD2 181-426) with HIF-1α CODD (Homo sapiens, UniProt Q9GZT9); assay: RapidFire-MS PHD2 hydroxylation assay, HIF-1α CODD peptide substrate; conditions: for tPHD2 inhibition (in words): tPHD2, HIF-1α CODD substrate
T1 construct: catalytic domain of truncated PHD2 (tPHD2, residues 181–426); His6 (N, cleaved yes); made in house; host or cells: E. coli BL21 DE3
Experimental: (§1) 11–16 were then assayed using mass spectrometry (MS) for inhibition of the catalytic domain of truncated PHD2 (tPHD2, residues 181–426) and (in selected cases) PHD3, employing either human HIF-1α CODD or NODD peptide sequences (Table 1).
(§2) Supplementary Information
(§3) RapidFire-MS PHD2 hydroxylation assays
(§4) Inhibition of PHD2 enzyme activity was assessed by mass spectrometry. The enzyme assay monitors tPHD2181-426 catalysed turnover of a C-terminal oxygenase […]
(§5) C-terminal amide) and appearance of the hydroxylated peptide product
(§6) (hydroxylation of proline 564) with a typical incubation time of 15 minutes.2 Assays were performed in 50 mM Tris.Cl pH 7.8, 50 mM NaCl, titrations of compounds for […]
(§7) ECHO 550 acoustic dispenser (Labcyte) and dry dispensed into 384-well polypropylene assay plates. The final assay concentration of DMSO was kept constant at 0.5% (v/v). tPHD2181-426 was at a concentration of 300 nM in the assay buffer (20 μM ferrous iron sulfate, 200 μM L-ascorbic acid, 10 μM CODD or NODD peptide and 20 μM 2-oxoglutarate) and 25 μl was dispensed across each 384-well assay plate. tPHD2181-426 was allowed to equilibrate with compounds for 15 minutes; the reaction was then initiated by addition of 25 μl of substrate.2 Enzyme reactions were allowed to proceed for 15 minutes and the reaction terminated by addition of 10% (v/v) formic acid (5 μl). Assay plates were then transferred to a RapidFire RF360 sampling robot (Agilent) connected to an Agilent 6530 quadrupole-time-of-flight (Q-TOF) mass spectrometer. Assay samples were aspirated under vacuum and loaded onto a C4 solid phase extraction (SPE) cartridge. After loading, the C4 SPE cartridge was washed with 0.1 % (v/v) formic acid in water to remove non-volatile buffer salts.
(§8) The peptide was then eluted from the SPE with 85% acetonitrile, 15% water containing 0.1% (v/v) formic acid into the mass spectrometer. Peptide charge states were monitored in the positive ion mode. Ion chromatogram data were extracted for […]
(§9) the +2 charge state and peak area data integrated using RapidFire Integrator software (Agilent). The % conversion of the CODD peptide substrate to the +16 hydroxylated peptide was calculated using the equation: […]
(§10) data were determined from non-linear regression plots using GraphPad prism 6.0.
(§11) All data were normalized to a no enzyme control.2

[2] = molecular target: T2, tPHD2 (PHD2 181-426) with HIF-1α NODD (Homo sapiens, UniProt Q9GZT9); assay: RapidFire-MS PHD2 hydroxylation assay, HIF-1α NODD peptide substrate
T2 construct: catalytic domain of truncated PHD2 (tPHD2, residues 181–426); His6 (N, cleaved yes); made in house; host or cells: E. coli BL21 DE3
Experimental: as §1, §2, §3, §4, §5, §6, §7, §8, §9, §10, §11

KDM4A = molecular target: T3, KDM4A (Homo sapiens, UniProt O75164); assay: KDM4A selectivity assay with H3(1-15) K9Me3, RapidFire-MS; conditions: isolated KDM4A, Table S2
T3 sequence (O75164 1-1064): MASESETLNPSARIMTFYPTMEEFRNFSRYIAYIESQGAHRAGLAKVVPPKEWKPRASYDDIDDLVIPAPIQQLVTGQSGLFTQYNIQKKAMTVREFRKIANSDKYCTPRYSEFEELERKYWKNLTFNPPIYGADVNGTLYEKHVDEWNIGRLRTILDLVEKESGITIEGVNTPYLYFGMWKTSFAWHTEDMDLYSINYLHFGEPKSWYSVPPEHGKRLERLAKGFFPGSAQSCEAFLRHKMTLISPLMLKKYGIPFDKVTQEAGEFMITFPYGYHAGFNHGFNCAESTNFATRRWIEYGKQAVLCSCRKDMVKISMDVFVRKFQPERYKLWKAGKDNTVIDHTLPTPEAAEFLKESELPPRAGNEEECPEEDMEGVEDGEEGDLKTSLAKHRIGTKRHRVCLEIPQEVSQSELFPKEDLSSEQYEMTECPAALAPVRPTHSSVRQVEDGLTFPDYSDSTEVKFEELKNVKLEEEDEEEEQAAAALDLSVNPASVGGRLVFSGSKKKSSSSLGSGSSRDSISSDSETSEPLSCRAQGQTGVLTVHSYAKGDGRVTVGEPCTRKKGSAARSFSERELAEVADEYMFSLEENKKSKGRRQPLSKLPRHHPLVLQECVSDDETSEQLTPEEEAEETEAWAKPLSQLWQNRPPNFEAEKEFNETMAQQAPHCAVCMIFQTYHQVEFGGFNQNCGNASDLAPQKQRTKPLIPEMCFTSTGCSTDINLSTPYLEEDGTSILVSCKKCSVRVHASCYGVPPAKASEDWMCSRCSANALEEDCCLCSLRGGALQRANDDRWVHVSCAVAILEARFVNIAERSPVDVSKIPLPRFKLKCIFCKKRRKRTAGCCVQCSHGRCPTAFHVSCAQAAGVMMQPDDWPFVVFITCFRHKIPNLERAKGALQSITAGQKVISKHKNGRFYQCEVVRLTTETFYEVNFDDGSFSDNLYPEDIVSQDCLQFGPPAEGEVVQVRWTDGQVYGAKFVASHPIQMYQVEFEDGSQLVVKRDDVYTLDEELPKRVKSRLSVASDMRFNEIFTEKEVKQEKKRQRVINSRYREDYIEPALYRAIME
From the text: (§12) We carried out initial studies on the selectivity of the spiro[4.5]decanone series.
as §2
(§13) Table S2: Studies on the selectivity of spiro[4.5]decanone containing inhibitors.
(§14) Compounds were screened against FIH with the HIF-1α CAD peptide D788 - L822 and
(§15) KDM4A with H3(1 - 15) K9Me3. Both assays employed the RapidFire-MS sampling
(§16) machine. See Experimental Methods for details. 2 […]

PHD3 = PHD3 (Homo sapiens, UniProt Q9H6Z9); assay: PHD3 catalysed HIF-1α CODD hydroxylation, RapidFire mass spectrometry
Experimental: as §1, §12

[3] = molecular target: factor inhibiting HIF (FIH) (Homo sapiens, UniProt Q9NWT6); assay: FIH selectivity assay with HIF-1α CAD peptide D788-L822, RapidFire-MS; conditions: isolated FIH, Table S2
From the text: as §12, §2, §13, §14, §15, §16

[4] = tPHD2 181-426, HIF-1α CODD peptide, RapidFire MS, standard error of the mean (n = 3), read-out: PHD2 with HIF1-α CODD IC50
[5] = tPHD2 181-426, HIF-1α NODD peptide, RapidFire MS, standard error of the mean (n = 3), read-out: PHD2 with HIF1-α NODD IC50

T1 sequence (Q9GZT9 181-426): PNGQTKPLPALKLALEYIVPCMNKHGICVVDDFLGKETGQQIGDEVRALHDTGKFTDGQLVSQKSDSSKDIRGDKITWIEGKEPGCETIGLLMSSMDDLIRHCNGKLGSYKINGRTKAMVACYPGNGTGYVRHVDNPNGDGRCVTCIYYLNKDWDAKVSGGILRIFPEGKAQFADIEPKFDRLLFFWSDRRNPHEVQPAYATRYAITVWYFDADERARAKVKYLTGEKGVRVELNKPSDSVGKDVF
T2 sequence (Q9GZT9 181-426): as above
PHD3, sequence (Q9H6Z9 whole entry): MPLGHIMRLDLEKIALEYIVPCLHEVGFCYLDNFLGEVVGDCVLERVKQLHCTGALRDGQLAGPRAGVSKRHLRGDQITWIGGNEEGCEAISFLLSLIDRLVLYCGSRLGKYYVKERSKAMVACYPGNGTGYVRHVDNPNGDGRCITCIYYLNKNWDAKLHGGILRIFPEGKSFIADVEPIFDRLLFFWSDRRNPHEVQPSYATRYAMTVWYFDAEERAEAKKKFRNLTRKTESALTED
factor inhibiting HIF (FIH), sequence (Q9NWT6 whole entry): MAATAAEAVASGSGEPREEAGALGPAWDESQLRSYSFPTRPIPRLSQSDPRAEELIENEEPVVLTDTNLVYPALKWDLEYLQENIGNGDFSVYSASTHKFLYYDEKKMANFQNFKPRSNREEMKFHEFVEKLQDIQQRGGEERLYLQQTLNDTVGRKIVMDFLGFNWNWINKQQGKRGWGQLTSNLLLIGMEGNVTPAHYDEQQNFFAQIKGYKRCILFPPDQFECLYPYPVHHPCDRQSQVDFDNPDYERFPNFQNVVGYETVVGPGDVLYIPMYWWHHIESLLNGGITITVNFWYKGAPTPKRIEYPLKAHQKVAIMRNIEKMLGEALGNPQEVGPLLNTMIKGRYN

## O=C1N(c2ccc(-c3ccccc3)cc2)C(=O)C2(CCNCC2)N1c1ncccn1 [Compound 10]
[1]; [4]
  IC50: > 25000 nM
[2]; [5]
  IC50: > 25000 nM

## COc1cccc(CN2CCC3(CC2)C(=O)N(c2ccc(-c4ccccc4)cc2)C(=O)N3c2ncccn2)n1 [Compound 16]
[1]; [4]
  IC50: 1210 ± 226 nM
[2]; [5]
  IC50: 905 ± 417 nM

## Cn1ccnc1CN1CCC2(CC1)C(=O)N(c1ccc(-c3ccccc3)cc1)C(=O)N2c1ncccn1 [Compound 14]
[1]
  IC50: 143 ± 97 nM
  tPHD2 inhibition (in words): maintained potent inhibition
[2]
  IC50: 49 ± 5 nM
KDM4A
  KDM4A inhibition (in words): weak

## O=C1N(c2ccc(-c3ccccc3)cc2)C(=O)C2(CCN(Cc3ccccc3O)CC2)N1c1ncccn1 [Compound 13]
[1]
  IC50: > 25000 nM
  tPHD2 inhibition (in words): inactive
[2]
  IC50: > 25000 nM

## Cc1cccnc1CN1CCC2(CC1)NC(=O)N(c1ccc(-c3ccccc3)cc1)C2=O [Compound 23]
PHD3
  IC50: 1050 ± 40 nM

## Cc1cccnc1CN1CCC2(CC1)C(=O)N(c1ccc(-c3ccccc3)cc1)C(=O)N2c1ncccn1 [Compound 11]
KDM4A
  KDM4A inhibition (in words): weak

## Cc1cccnc1CN1CCC2(CC1)C(=O)N(c1ccc(-c3ccccc3)cc1)C(=O)N2c1cc(C(=O)O)ccn1 [Compound 27]
[1]; [4]
  IC50: 380 ± 64 nM
[2]; [5]
  IC50: 94 ± 32 nM

## COc1ccnc(N2C(=O)N(c3ccc(-c4ccccc4)cc3)C(=O)C23CCN(Cc2ncccc2C)CC3)n1 [Compound 26]
[1]; [4]
  IC50: 289 ± 11 nM
[2]; [5]
  IC50: 55 ± 15 nM
[3]
  FIH inhibition (in words): weak

## Cn1ccnc1CN1CCC2(CC1)NC(=O)N(c1ccc(-c3ccccc3)cc1)C2=O [Compound 24]
[1]; [4]
  IC50: 151 ± 35 nM
[2]; [5]
  IC50: 63 ± 16 nM
PHD3
  IC50: 219 ± 25 nM

## O=C1N(c2ccc(-c3ccccc3)cc2)C(=O)C2(CCN(Cc3ncc[nH]3)CC2)N1c1ncccn1 [Compound 15]
[1]; [4]
  IC50: 215 ± 19 nM
[1]
  tPHD2 inhibition (in words): maintained potent inhibition
[2]; [5]
  IC50: 70 ± 21 nM

## O=C1N(c2ccc(-c3ccccc3)cc2)C(=O)C2(CCN(Cc3cccs3)CC2)N1c1ncccn1 [Compound 12]
[1]; [4]
  IC50: > 25000 nM
[1]
  tPHD2 inhibition (in words): inactive
[2]; [5]
  IC50: > 25000 nM
